Source: patent publication US20120039805A1, “Therapeutics And Methods For Treating Neoplastic Diseases Comprising Determining The Level Of Caveolin-1 And/Or Caveolin-2 In A Stromal Cell Sample” (PANGEA BIOSCIENCES, INC., priority 2009, published 2012)

Legend:
Cav-1 = assay: Co-culture of MCF-7 cells with normal human fibroblasts: Cav-1 down-regulation in fibroblasts; type: cell-based; settings: within 5 days of co-culture
Excerpt: Using this system, it was observed that within 5 days of co-culture MCF-7 cells down-regulate the expression of Cav-1 in adjacent stromal fibroblasts. This occurs via the degradation of Cav-1 in lysosomal structures, and can be inhibited by chloroquine, an anti-lysomal agent. Most importantly, MCF-7 cells induce oxidative stress in the adjacent fibroblasts via the over-production of reactive oxygen species (ROS). ROS, in turn, is known to stabilize and activate certain transcription factors, such as NFkB and HIF. NFkB- and HIF- are the master regulators of “inflammation” and “hypoxia/aerobic glycolysis” in the tumor microenvironment. Thus, in order to detect the activation of NFkB and HIF only in the fibroblast cell population, two different fibroblast cell lines engineered to express either a NFkB-luciferase or HIF-luciferase transcriptional reporter were used. […] As such, NFkB is activated first, while HIF is activated on day 4 and day 5 of coculture, coicindent with Cav-1 down-regulation. Thus, cancer cells induce the Warburg effect in adjacent stromal fibroblasts via the activation of NFkB and HIF-target genes, leading to inflammation and aerobic glycolysis. These findings provide a mechanistic basis for the “Reverse Warburg Effect”, and a new high-throughput drug-screening assay for the identification of novel compounds that block the “Reverse Warburg Effect”.

neovascularization = settings: Oikawa (1988); cited from earlier work
[1] = test system: PD-ECGF/TP transfected cells; settings: Haraguchi (1993); cited from earlier work
[2] = test system: invasive carcinomas of the breast; assay: Breast cancer tissue microarray cohort: progression-free survival by treatment and stromal Cav-1; type: in vivo, human
Protocol: Breast tissues for tissue microarray construction were obtained from the Surgical Pathology tiles at the University of Michigan with institutional Review Board (IRB) approval. The TMA contained tissues derived from 154 largely consecutive patients with invasive carcinomas of the breast, with follow-up information treated at the University of Michigan from 1987-1991. Clinical and pathological variables were determined following well-established criteria. All invasive carcinomas were graded according to the method described by Elston and Ellis 17; Lymphovascular Invasion (LVI) was classified as either present or absent. The tissue microarrays were constructed, as previously described, using a tissue arrayer (Beecher Instruments, Silver Spring, Md.). Three tissue cores (0.6 mm diameter) were sampled from each block to account for tumor and tissue heterogeneity and transferred to the recipient block. Only cases with two or three cores containing tumor stromal cells were considered for statistical analysis in order to address possible heterogeneity of the staining in various tumor portions. Clinical and treatment information was extracted by chart review.
Our study population consists of 154 women diagnosed with breast cancer, with a median age of 59.5 years (range 28-96 years). 85% of the women were white. The median follow-up time for all survivors was 8.4 years (>30 days-18.5 years). […] The median time to recurrence or death from any cause was 7.1 years.
Statistical Analysis. For each patient, the date of breast cancer diagnosis, date of last follow-up, vital status at last follow-up, causes of death (breast cancer or other), and breast cancer recurrence, were recorded. Stromal caveolin was scored for each tissue sample based on 3 cores taken from the sample and given a numeric score of 0, 1 or 2, depending on the degree of stromal Cav-1 staining. The median of the three numeric scores was taken to be the stromal Cav-1 score for the sample. In the event that only two of the cores were scorable, and the median score was fractional, it was rounded upward to reflect the presence of stromal Cav-1. […]
Our primary outcome of interest in this study is progression-free survival (PFS) from time of diagnosis to the presence of metastasis, death, or last visit. PFS is evaluated using Kaplan-Meier estimation, and comparison of stratified survival curves was done using log-rank tests. […] Associations between the presence of stromal Cav-1 and other factors, including age, race, tumor grade, tumor size, lymph node status, histological subtype, estrogen receptor (ER), progesterone receptor (PR) and HER2, and presence of recurrent disease, were evaluated using Fisher's exact and Kruskal-Wallis tests, depending on the discrete or continuous nature of the other factors.

[3] = test system: MDA-MB-231 breast cancer cells co-injected with Cav-1-deficient stromal fibroblasts; assay: Two-component xenograft: nude mice co-injected with MDA-MB-231 cells and Cav-1-deficient stromal fibroblasts, treated with glycolysis inhibitors; type: in vivo; settings: given individually, 200 mg/kg; mice co-injected with Cav-1-deficient stromal fibroblasts and MDA-MB-231 cells
Protocol: Mice co-injected with Cav-1-deficient stromal fibroblasts and MDA-MB-231 breast cancer cells were treated with glycolysis inhibitors. The efficacy of two well-established glycolysis inhibitors, namely 2-DG (2-deoxy-D-glucose) and DCA (dichloro-acetate), individually or in combination were tested.
To provide additional experimental validation for the idea that an absence of stromal Cav-1 promotes breast cancer tumor growth and angiogenesis, a 2-component cell-system using xenografts in immuno-deficient female nude mice was developed. Briefly, the flanks of nude mice were injected with a mixture of 1) MDA-MB-231 cells (a highly aggressive human breast cancer cell line; 1.0×10^−6 cells) and 2) stromal fibroblasts, derived from either WT or Cav-1 (−/−) null mice (0.3×10^−6 cells). After 3 weeks, nude mice were sacrificed and breast cancer-derived tumors were subjected to analysis for growth (tumor weight and volume measurements) and immuno-histochemistry with markers of angiogenesis, such as CD31 (a.k.a, PECAM1).
In this two-component system, nude mice are co-injected with i) human breast cancer cells (MDA-MB-231), and ii) stromal fibroblasts (WT versus Cav-1 (−/−) deficient).

[4] = Tamoxifen-treated patients, stromal Cav-1 absent

Structure (SMILES): CCN(CC)CCCC(C)Nc1ccnc2cc(Cl)ccc12 (centres unmarked) [chloroquine]
- degradation of Cav-1 in lysosomal structures of fibroblasts co-cultured with MCF-7 cells (Cav-1): inhibited

Structure (SMILES): CC(=O)O[C@]1(C(C)=O)CC[C@H]2[C@@H]3C[C@H](C)C4=CC(=O)CC[C@]4(C)[C@H]3CC[C@@]21C [MPA, medroxyprogesterone acetate]
- neovascularization in the rabbit corneal assay (neovascularization): potently inhibited neovascularization

Structure (SMILES): C[C@H]1O[C@@H](n2cc(F)c(=O)[nH]c2=O)[C@H](O)[C@@H]1O [5′DFUR, 5′-deoxy-5-fluorouridine]
- antitumor effect in PD-ECGF/TP transfected cells compared with untransfected wild-type cells [1]: dramatic enhancement of antitumor effect

Structure (SMILES): CC/C(=C(\c1ccccc1)c1ccc(OCCN(C)C)cc1)c1ccccc1 [Tamoxifen]
- Hazard ratio, Cox regression of Progression-Free Survival (PFS) ([2]; Tamoxifen use Yes vs No (ref), adjusted for T stage, N stage, stromal Cav-1, 101 observations): 0.621
- Median Progression-Free Survival (PFS) [2, 4]: 3.55 years
- Percent of Patients Alive with No Recurrence, 5-Year PFS [2, 4]: 28.6%
- Percent of Patients Alive with No Recurrence, 5-Year PFS ([2]; Tamoxifen-treated patients, stromal Cav-1 present): 90.2%

Structure (SMILES): O=CC[C@@H](O)[C@H](O)[C@H](O)CO [2-DG, 2-deoxy-D-glucose]
- effect on tumor growth [3]: no effect on tumor growth
